# Key:
# [1] = molecular target: T1, Progesterone receptor (Homo sapiens, UniProt P06401); test: Progesterone receptor antagonist activity in human T47D breast carcinoma cell alkaline phosphatase assay
# T1 sequence (P06401 whole entry): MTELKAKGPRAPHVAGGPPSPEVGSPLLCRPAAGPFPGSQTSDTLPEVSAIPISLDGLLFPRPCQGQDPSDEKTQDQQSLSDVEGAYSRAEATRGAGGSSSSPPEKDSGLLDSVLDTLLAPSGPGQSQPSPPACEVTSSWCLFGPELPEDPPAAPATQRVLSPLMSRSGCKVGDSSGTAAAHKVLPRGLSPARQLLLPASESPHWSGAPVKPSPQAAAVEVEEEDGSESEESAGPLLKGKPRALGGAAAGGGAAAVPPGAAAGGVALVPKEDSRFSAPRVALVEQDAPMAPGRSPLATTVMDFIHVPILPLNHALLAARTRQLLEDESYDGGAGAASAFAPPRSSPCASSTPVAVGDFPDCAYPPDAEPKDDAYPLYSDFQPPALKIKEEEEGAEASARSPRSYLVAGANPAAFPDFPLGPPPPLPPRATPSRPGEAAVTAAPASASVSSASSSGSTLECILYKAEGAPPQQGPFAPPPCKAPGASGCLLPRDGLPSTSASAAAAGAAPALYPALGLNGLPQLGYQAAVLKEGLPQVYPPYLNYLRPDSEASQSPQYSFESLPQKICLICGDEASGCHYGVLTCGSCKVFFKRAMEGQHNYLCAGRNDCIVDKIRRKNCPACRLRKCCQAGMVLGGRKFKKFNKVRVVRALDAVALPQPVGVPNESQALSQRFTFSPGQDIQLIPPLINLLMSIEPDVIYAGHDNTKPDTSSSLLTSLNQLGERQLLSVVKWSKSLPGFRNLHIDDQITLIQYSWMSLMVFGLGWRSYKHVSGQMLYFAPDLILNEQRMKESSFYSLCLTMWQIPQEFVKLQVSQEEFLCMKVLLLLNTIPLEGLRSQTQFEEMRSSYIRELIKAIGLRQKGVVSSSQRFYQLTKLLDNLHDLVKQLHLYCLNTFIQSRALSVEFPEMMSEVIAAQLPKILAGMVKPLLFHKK
# [2] = molecular target: T1, Progesterone receptor; test: Progesterone receptor agonist activity in human T47D breast carcinoma cell alkaline phosphatase assay; format: functional, cell-based
SMILES,IC50 [1],IC50 [2]
Cn1c(C#N)ccc1-c1ccc2[nH]c(=O)n(C3CCCC3)c2c1,5.6 nM,
CC(C)n1c(O)nc2ccc(-c3ccc(C#N)n3C)cc21,4.7 nM,
N#Cc1cc(F)cc(-c2ccc3[nH]c(=O)n(-c4cccc(Cl)c4)c3c2)c1,3000 nM,
CC(C)n1c(O)nc2ccc(-c3ccc(F)cc3)cc21,295 nM,
CC(C)n1c(O)nc2ccc(-c3ccc(F)c(C#N)c3)cc21,60.3 nM,
CC(C)n1c(=O)[nH]c2ccc(-c3cc(Cl)cc(Cl)c3)cc21,100 nM,
Cn1c(C#N)ccc1-c1ccc2[nH]c(=O)n(C3CCC3)c2c1,10.9 nM,
N#Cc1cc(F)cc(-c2ccc3[nH]c(=O)n(-c4ccccc4)c3c2)c1,137 nM,
N#Cc1cc(F)cc(-c2ccc3[nH]c(=O)n(C4CCCCC4)c3c2)c1,83.6 nM,
Oc1nc2ccc(-c3ccc(F)c(Cl)c3)cc2n1C1CCC1,106 nM,
CC(C)n1c(O)nc2ccc(-c3ccccc3F)cc21,412 nM,
CC(C)n1c(O)nc2ccc(-c3ccc(F)c(F)c3)cc21,207 nM,
CC(C)n1c(=O)[nH]c2ccc(-c3cccc(F)c3)cc21,77.9 nM,
O=c1[nH]c2ccc(-c3ccc(F)c(F)c3)cc2n1C1CCC1,175 nM,
N#Cc1cc(F)cc(-c2ccc3[nH]c(=O)n(C4CCC4)c3c2)c1,3.3 nM,
CCC(CC)n1c(=O)[nH]c2ccc(-c3ccc(F)c(Cl)c3)cc21,,426 nM
CC(C)n1c(=O)[nH]c2ccc(-c3ccc(F)c(Cl)c3)cc21,106 nM,
CCC(CC)n1c(=O)[nH]c2ccc(-c3ccc(C#N)n3C)cc21,,11.7 nM
Cc1cc(C#N)sc1-c1ccc2nc(O)n(C(C)C)c2c1,24.8 nM,
CC(C)n1c(O)nc2ccc(-c3cc(F)cc(C#N)c3)cc21,29.6 nM,
N#Cc1cc(F)cc(-c2ccc3[nH]c(=O)n(C4CCCC4)c3c2)c1,5.7 nM,
CCC(CC)n1c(=O)[nH]c2ccc(-c3cc(F)cc(C#N)c3)cc21,,29 nM
Oc1nc2ccc(-c3ccc(F)c(Cl)c3)cc2n1C1CCCC1,135 nM,
O=c1[nH]c2ccc(-c3ccc(F)c(F)c3)cc2n1C1CCCC1,96.8 nM,
